Where “and” joins values, the source holds several entries; their conditions need not be identical. Identical values can stand only once.
Tests used:
Type in all cases: cell-based, HIV
[1] = system: BRU virus (clade B); experiment: Number of syncitia in MT4 cell culture infected by BRU virus; parameters: key: the absence of syncitia is indicated by a minus (−) sign; the (+), +, ++, ++T signs indicate an increasing number of syncitia in each well; the (+), +, ++, ++T signs indicate an increasing number of syncitia in each well; the (+), +, ++, ++T signs indicate an increasing number of syncitia in each well; the (+), +, ++, ++T signs indicate an increasing number of syncitia in each well; The indication “T” indicates the death of the cells; settings: 0.01 μM; for Number of Syncitia in the Culture (wells), J3: day 3; for Number of Syncitia in the Culture (wells), J4: day 4; for Number of Syncitia in the Culture (wells), J5: day 5; for Number of Syncitia in the Culture (wells), J6: day 6; for Number of Syncitia in the Culture (wells), J7: day 7
Method: either by the observation, as a function of the quantity of sulphated polysaccharide used and of the time of said use, which can be made before, during or after infection, or even continuously, and of the reduction of the number of syncitia appearing in a culture of MT4 cells following infection by a HIV retrovirus (example 2A),
Then infection of the cells was carried out by adding to each well, with the exception of those wells being used as control cells, 50 μL of previously titrated virus dilution.
After an additional hour of incubation, the plate was centrifuged and the supernatant containing the residual virus was discarded.
After 3 days of culture, the cells were diluted to half and the syncitia were observed using the inverse microscope from day 3 to day 7 after having been placed in suspension.
In the third case, the MT4 cell culture was preincubated for one hour at 37° C., then the cells were infected, the whole was subjected to incubation for one hour at 37° C., then to centrifugation with the elimination of the supernatant containing the virus that had not penetrated into the cells.
The washings and rinsings were done using RPMI without foetal calf serum.
In each of the four types of experiments that have just been described, and as previously indicated, the cells were diluted to half after three days of culture and then the syncitia were observed using the inverted microscope from day 3 to day 7.
In the experiments described in greater detail hereinafter, the absence of syncitia is indicated by a minus (−) sign and the (+), +, ++, ++T signs indicate an increasing number of syncitia in each well.
The indication “T” indicates the death of the cells.
The BRU virus (clade B) was used for infecting the MT4 cells at a viral dilution of 10^5, which corresponds to the quantity of viral particles capable of infecting 80% of the MT4 cultures (Tissue Culture Infections Dose 80%, TCID80%).

[2] = system: RTMC virus (clade B), resistant to AZT; experiment: RT activity in supernatant and cell number of CEM cells infected by RTMC virus; settings: 0.1 μM, RMTC viral dilution 5 · 10^−4
Method: The cells were counted every three days and the cultures diluted with a view of culturing 0.5*10^6 cells/mL; the RT activity assay was done following a protocol comprising:
measurement of the radioactivity of the DNA synthesized, said radioactivity being proportional to the quantity of tritiated thymidine incorporated into said synthesized DNA, which itself is proportional to RT activity and thus to the number of viruses produced by replication.
The contents (1 mL) of each well was centrifuged for 5 minutes at 1500 r.p.m. (Jouan GR 422 centrifuge) and then the culture supernatant obtained was ultracentrifuged at 4° C., 95000 r.p.m. (Beckman TL100 ultracentrifuge) in order to obtain the viral pellet.
The viral pellet was then placed in a test tube containing 10 μL of NTE buffer to which 0.1% of triton was added, which releases the viral enzymes, particularly RT; the tube was then vortexed, covered with parafilm and held for 10 minutes at 4° C. and then frozen at −20° C.
As many test tubes containing this reaction mixture were prepared as there were samples to be tested. […]
The amount of radioactivity that was measured is proportional to the RT activity present and, consequently, to the number of viruses produced by replication. […]

[3] = system: NDK (clade D) virus; experiment: RT activity and cell number as a function of the moment of incorporation, NDK virus; settings: 0.1 μM; for Number of cells, J7: day 7; for Number of cells, J3 / Quantity of RT measured, J3: day 3
From the text: The procedure was the same as that previously indicated with regard to the experiments carried out on MT4 cells; e.g., as in Example 2A.
The results of the measurements done on days 3 and 7 are summarized in Table D; RT activity is expressed in dpm/mL and cells are expressed in 10^6 cells/mL.

[4] = Continuous, before, during and after infection
[5] = Continously, before, during and after

3′-azidothymidine [AZT]
Number of Syncitia in the Culture (wells), J3 ([1]; After infection): − | Number of Syncitia in the Culture (wells), J4 ([1]; After infection): − | Number of Syncitia in the Culture (wells), J5 ([1]; After infection): − | Number of Syncitia in the Culture (wells), J6 ([1]; After infection): − | Number of Syncitia in the Culture (wells), J7 ([1]; After infection): − | Number of Syncitia in the Culture (wells), J3 ([1]; Before infection): − | Number of Syncitia in the Culture (wells), J4 ([1]; Before infection): (+) | Number of Syncitia in the Culture (wells), J5 ([1]; Before infection): ++ and + | Number of Syncitia in the Culture (wells), J6 ([1]; Before infection): ++T and ++ | Number of Syncitia in the Culture (wells), J7 ([1]; Before infection): ++T | Number of Syncitia in the Culture (wells), J3 [1, 4]: − | Number of Syncitia in the Culture (wells), J4 [1, 4]: − | Number of Syncitia in the Culture (wells), J5 [1, 4]: − | Number of Syncitia in the Culture (wells), J6 [1, 4]: − | Number of Syncitia in the Culture (wells), J7 [1, 4]: − | Number of Syncitia in the Culture (wells), J3 ([1]; During infection): − | Number of Syncitia in the Culture (wells), J4 ([1]; During infection): (+) | Number of Syncitia in the Culture (wells), J5 ([1]; During infection): + | Number of Syncitia in the Culture (wells), J6 ([1]; During infection): ++ | Number of Syncitia in the Culture (wells), J7 ([1]; During infection): ++T | Number of cells per mL, D3 ([2]; day 3): 2.7 10^6 Cell/mL and 3.3 10^6 Cell/mL | Number of cells per mL, D10 ([2]; day 10): 0.4 10^6 Cell/mL and 0.8 10^6 Cell/mL | Number of cells, J7 [3]: 3.2 10^6 Cells/mL and 1.6 10^6 Cells/mL | Number of cells, J3 ([3]; After infection): 1.2 10^6 Cells/mL and 0.8 10^6 Cells/mL | Quantity of RT measured, J3 ([3]; After infection): 1249 dpm/mL and 956 dpm/mL | Number of cells, J7 ([3]; After infection): 1.8 10^6 Cells/mL and 3.2 10^6 Cells/mL | Number of cells, J3 ([3]; Before infection): 1.4 10^6 Cells/mL and 0.8 10^6 Cells/mL | Number of cells, J7 ([3]; Before infection): 2 10^6 Cells/mL and 3.8 10^6 Cells/mL | Number of cells, J3 [3, 5]: 1.7 10^6 Cells/mL and 1.3 10^6 Cells/mL | Quantity of RT measured, J3 [3, 5]: 399 dpm/mL and 750 dpm/mL | Number of cells, J7 [3, 5]: 3.6 10^6 Cells/mL and 3.2 10^6 Cells/mL | Number of cells, J3 ([3]; During dining room): 1.9 10^6 Cells/mL and 1.6 10^6 Cells/mL | Quantity of RT measured, J3 ([3]; During dining room): 1529 dpm/mL and 956 dpm/mL

Reference: patent publication US20080269162A1, “Novel Medicaments for Anti-Retroviral Treatments” (priority 2006, published 2008)
